Earlier results as cited in US20230243817A1, “USES, METHODS AND PRODUCTS RELATING TO OLIGOMERIC LIPOPOLYSACCHARIDE BINDING PROTEINS” (priority 2020, published 2023).

B1: LPS binding protein: human LPS immune receptor (protein, UniProt P18428 26-481, looked up)
Lipopolysaccharide-binding …: ANPGLVARITDKGLQYAAQEGLLALQSELLRITLPDFTGDLRIPHVGRGRYEFHSLNIHSCELLHSALRPVPGQGLSLSISDSSIRVQGRWKVRKSFFKLQGSFDVSVKGISISVNLLLGSESSGRPTVTASSCSSDIADVEVDMSGDLGWLLNLFHNQIESKFQKVLESRICEMIQKSVSSDLQPYLQTLPVTTEIDSFADIDYSLVEAPRATAQMLEVMFKGEIFHRNHRSPVTLLAAVMSLPEEHNKMVYFAISDYVFNTASLVYHEEGYLNFSITDDMIPPDSNIRLTTKSFRPFVPRLARLYPNMNLELQGSVPSAPLLNFSPGNLSVDPYMEIDAFVLLPSSSKEPVFRLSVATNVSATLTFNTSKITGFLKPGKVKVELKESKVGLFNAELLEALLNYYILNTFYPKFNDKLAEGFPLPLLKRVQLYDLGLQIHKDFLFLGANVQYMRV

Details: for Kd: read-out: KD for LPS

Molecule | Kd [µM] | Reported binding affinity (depending on the bacterial strain)
MD-2: human LPS immune receptor | 2.33 | 
TLR4: human LPS immune receptor | 141 | 
polymyxin B [reference compound] | 48 | micromolar range
B1 | 0.0035 | 
